Laboratory results: ChEMBL document CHEMBL1671734, “An ertapenem-resistant extended-spectrum-beta-lactamase-producing Klebsiella pneumoniae clone carries a novel OmpK36 porin variant” (2010)
Values after ≈ are worked out from the molar mass of the structure shown.

Tests used:
Format in all cases: functional
Klebsiella pneumoniae [1] = experiment: Antimicrobial activity against ESBL-positive Klebsiella pneumoniae 18918 harboring porin OmpK36V mutant gene by Etest
Klebsiella pneumoniae [2] = experiment: Antimicrobial activity against ESBL-negative Klebsiella pneumoniae 299332 harboring porin OmpK36 gene by Etest
Klebsiella pneumoniae [3] = experiment: Antimicrobial activity against ESBL-positive Klebsiella pneumoniae 19039 harboring porin OmpK36V mutant gene by Etest
Klebsiella pneumoniae [4] = experiment: Antimicrobial activity against ESBL-positive Klebsiella pneumoniae 16855 harboring porin OmpK36 and OmpK35 genes by Etest
Klebsiella pneumoniae [5] = experiment: Antimicrobial activity against ESBL-positive Klebsiella pneumoniae 17829 harboring pSHA2-encoded porin OmpK36 gene by Etest
Klebsiella pneumoniae [6] = experiment: Antimicrobial activity against ESBL-positive Klebsiella pneumoniae 16830 harboring porin OmpK36 gene by Etest
Klebsiella pneumoniae [7] = experiment: Antimicrobial activity against ESBL-positive Klebsiella pneumoniae 25008 by Etest
Klebsiella pneumoniae [8] = experiment: Antimicrobial activity against ESBL-positive Klebsiella pneumoniae 6267 harboring porin OmpK36V mutant gene by Etest
Klebsiella pneumoniae [9] = experiment: Antimicrobial activity against ESBL-positive Klebsiella pneumoniae 71697 harboring porin OmpK36V mutant gene by Etest
Klebsiella pneumoniae [10] = experiment: Antimicrobial activity against ESBL-positive Klebsiella pneumoniae 31750 harboring porin OmpK36 gene by Etest
Klebsiella pneumoniae [11] = experiment: Antimicrobial activity against ESBL-positive Klebsiella pneumoniae 50748 harboring porin OmpK36 gene by Etest
Klebsiella pneumoniae [12] = experiment: Antimicrobial activity against ESBL-positive Klebsiella pneumoniae 69928 harboring porin OmpK36V mutant gene by Etest
Klebsiella pneumoniae [13] = experiment: Antimicrobial activity against ESBL-positive Klebsiella pneumoniae 29459 harboring porin OmpK36 gene by Etest
Klebsiella pneumoniae [14] = experiment: Antimicrobial activity against ESBL-positive Klebsiella pneumoniae 17049 harboring porin OmpK36V mutant gene by Etest
Klebsiella pneumoniae [15] = experiment: Antimicrobial activity against ESBL-positive Klebsiella pneumoniae 17830 harboring porin OmpK36V mutant gene by Etest
Klebsiella pneumoniae [16] = experiment: Antimicrobial activity against ESBL-positive Klebsiella pneumoniae 18567 harboring porin OmpK36V mutant gene by Etest
Klebsiella pneumoniae [17] = experiment: Antimicrobial activity against ESBL-positive Klebsiella pneumoniae 11932 harboring porin OmpK36 gene by Etest
Klebsiella pneumoniae [18] = experiment: Antimicrobial activity against ESBL-positive Klebsiella pneumoniae 69036 harboring porin OmpK36V mutant gene by Etest
Klebsiella pneumoniae [19] = experiment: Antimicrobial activity against ESBL-positive Klebsiella pneumoniae 17829 by Etest
Klebsiella pneumoniae [20] = experiment: Antimicrobial activity against ESBL-positive Klebsiella pneumoniae 29830 harboring porin OmpK36V mutant gene by Etest
Klebsiella pneumoniae [21] = experiment: Antimicrobial activity against ESBL-positive Klebsiella pneumoniae 287942 harboring porin OmpK36 gene by Etest
Klebsiella pneumoniae [22] = experiment: Antimicrobial activity against ESBL-positive Klebsiella pneumoniae 18260 by Etest
Klebsiella pneumoniae [23] = experiment: Antimicrobial activity against ESBL-positive Klebsiella pneumoniae 26077 harboring porin OmpK36V mutant gene by Etest
Klebsiella pneumoniae [24] = experiment: Antimicrobial activity against ESBL-positive Klebsiella pneumoniae 18260 harboring pSHA2-encoded porin OmpK36 gene by Etest
Klebsiella pneumoniae [25] = experiment: Antimicrobial activity against ESBL-negative Klebsiella pneumoniae 30018 harboring porin OmpK35 gene by Etest
Klebsiella pneumoniae [26] = experiment: Antimicrobial activity against ESBL-positive Klebsiella pneumoniae 17834 harboring porin OmpK36V mutant gene by Etest

SMILES | MIC (Klebsiella pneumoniae [1]) [µg/mL] | MIC (Klebsiella pneumoniae [2]) [µg/mL] | MIC (Klebsiella pneumoniae [3]) [µg/mL] | MIC (Klebsiella pneumoniae [6]) [µg/mL] | MIC (Klebsiella pneumoniae [7]) [µg/mL] | MIC (Klebsiella pneumoniae [9]) [µg/mL] | MIC (Klebsiella pneumoniae [11]) [µg/mL] | MIC (Klebsiella pneumoniae [12]) [µg/mL] | MIC (Klebsiella pneumoniae [13]) [µg/mL] | MIC (Klebsiella pneumoniae [14]) [µg/mL] | MIC (Klebsiella pneumoniae [15]) [µg/mL] | MIC (Klebsiella pneumoniae [16]) [µg/mL] | MIC (Klebsiella pneumoniae [17]) [µg/mL] | MIC (Klebsiella pneumoniae [18]) [µg/mL] | MIC (Klebsiella pneumoniae [19]) [µg/mL] | MIC (Klebsiella pneumoniae [20]) [µg/mL] | MIC (Klebsiella pneumoniae [22]) [µg/mL] | MIC (Klebsiella pneumoniae [23]) [µg/mL] | MIC (Klebsiella pneumoniae [25]) [µg/mL] | MIC (Klebsiella pneumoniae [26]) [µg/mL] | other results
CC(C)(O/N=C(\C(=O)N[C@@H]1C(=O)N2C(C(=O)[O-])=C(C[n+]3ccccc3)CS[C@H]12)c1csc(N)n1)C(=O)O [CEFTAZIDIME] | > 32 | < 0.5 | > 32 | > 32 | > 32 | > 32 | > 32 | > 32 | > 32 | > 32 | > 32 | > 32 | > 32 | > 32 | > 32 | > 32 | > 32 | > 32 | < 0.5 | > 32 | MIC (Klebsiella pneumoniae [4]): > 32 µg/mL; MIC (Klebsiella pneumoniae [5]): > 32 µg/mL; MIC (Klebsiella pneumoniae [8]): > 32 µg/mL; MIC (Klebsiella pneumoniae [10]): > 32 µg/mL; MIC (Klebsiella pneumoniae [21]): > 32 µg/mL; MIC (Klebsiella pneumoniae [24]): > 32 µg/mL
C[C@@H](O)[C@H]1C(=O)N2C(C(=O)O)=C(S[C@@H]3CN[C@H](C(=O)N(C)C)C3)[C@H](C)[C@H]12 [MEROPENEM] | 1 (≈ 2.61 µM) | 0.032 (≈ 0.0834 µM) | 1 (≈ 2.61 µM) | 0.047 (≈ 0.123 µM) | 4 (≈ 10.4 µM) | 1.5 (≈ 3.91 µM) | 0.094 (≈ 0.245 µM) | 1.5 (≈ 3.91 µM) | 0.094 (≈ 0.245 µM) | 2 (≈ 5.22 µM) | 1.5 (≈ 3.91 µM) | 1 (≈ 2.61 µM) | 0.064 (≈ 0.167 µM) | 1 (≈ 2.61 µM) | 12 (≈ 31.3 µM) | 1 (≈ 2.61 µM) | 12 (≈ 31.3 µM) | 1 (≈ 2.61 µM) | 0.032 (≈ 0.0834 µM) | 0.75 (≈ 1.96 µM) | MIC (Klebsiella pneumoniae [4]): 0.064 µg/mL (≈ 0.167 µM); MIC (Klebsiella pneumoniae [5]): 1 µg/mL (≈ 2.61 µM); MIC (Klebsiella pneumoniae [8]): 1 µg/mL (≈ 2.61 µM); MIC (Klebsiella pneumoniae [10]): 0.064 µg/mL (≈ 0.167 µM); MIC (Klebsiella pneumoniae [21]): 0.064 µg/mL (≈ 0.167 µM); MIC (Klebsiella pneumoniae [24]): 1 µg/mL (≈ 2.61 µM)
CO/N=C(\C(=O)N[C@@H]1C(=O)N2C(C(=O)[O-])=C(C[N+]3(C)CCCC3)CS[C@H]12)c1csc(N)n1 [CEFEPIME] | > 256 | – | > 256 | – | > 256 | > 256 | 48 (≈ 99.9 µM) | > 256 | 96 (≈ 200 µM) | > 256 | > 256 | > 256 | 48 (≈ 99.9 µM) | > 256 | > 256 | > 256 | > 256 | > 256 | 0.047 (≈ 0.0978 µM) | > 256 | MIC (Klebsiella pneumoniae [8]): > 256 µg/mL
CO[C@@]1(NC(=O)Cc2cccs2)C(=O)N2C(C(=O)O)=C(COC(N)=O)CS[C@@H]21 [CEFOXITIN] | > 256 | 4 (≈ 9.36 µM) | > 256 | 3 (≈ 7.02 µM) | 64 (≈ 150 µM) | 128 (≈ 299 µM) | 6 (≈ 14 µM) | 48 (≈ 112 µM) | 6 (≈ 14 µM) | > 256 | 96 (≈ 225 µM) | > 256 | 6 (≈ 14 µM) | 128 (≈ 299 µM) | > 256 | 128 (≈ 299 µM) | > 256 | 128 (≈ 299 µM) | 3 (≈ 7.02 µM) | 96 (≈ 225 µM) | MIC (Klebsiella pneumoniae [4]): 24 µg/mL (≈ 56.1 µM); MIC (Klebsiella pneumoniae [5]): 256 µg/mL (≈ 599 µM); MIC (Klebsiella pneumoniae [8]): 32 µg/mL (≈ 74.9 µM); MIC (Klebsiella pneumoniae [10]): 3 µg/mL (≈ 7.02 µM); MIC (Klebsiella pneumoniae [21]): 4 µg/mL (≈ 9.36 µM); MIC (Klebsiella pneumoniae [24]): 256 µg/mL (≈ 599 µM)
C[C@H]1[C@H](NC(=O)/C(=N\OC(C)(C)C(=O)O)c2csc(N)n2)C(=O)N1S(=O)(=O)O [AZTREONAM] | > 256 | 0.25 (≈ 0.574 µM) | > 256 | > 256 | > 256 | > 256 | > 256 | > 256 | > 256 | > 256 | > 256 | > 256 | > 256 | > 256 | > 256 | > 256 | > 256 | > 256 | 0.064 (≈ 0.147 µM) | > 256 | MIC (Klebsiella pneumoniae [5]): > 256 µg/mL; MIC (Klebsiella pneumoniae [21]): > 256 µg/mL; MIC (Klebsiella pneumoniae [24]): > 256 µg/mL
CO/N=C(\C(=O)N[C@@H]1C(=O)N2C(C(=O)O)=C(COC(C)=O)CS[C@H]12)c1csc(N)n1 [CEFOTAXIME] | > 32 | 0.125 (≈ 0.274 µM) | > 32 | > 32 | > 32 | > 32 | > 32 | > 32 | > 32 | > 32 | > 32 | > 32 | > 32 | > 32 | > 32 | > 32 | > 32 | > 32 | 0.094 (≈ 0.206 µM) | > 32 | MIC (Klebsiella pneumoniae [4]): > 32 µg/mL; MIC (Klebsiella pneumoniae [8]): > 32 µg/mL; MIC (Klebsiella pneumoniae [10]): > 32 µg/mL; MIC (Klebsiella pneumoniae [21]): > 32 µg/mL
C[C@@H](O)[C@H]1C(=O)N2C(C(=O)O)=C(SCCNC=N)C[C@H]12 [IMIPENEM ANHYDROUS] | 0.19 (≈ 0.635 µM) | 0.25 (≈ 0.835 µM) | 0.19 (≈ 0.635 µM) | 0.125 (≈ 0.418 µM) | 1 (≈ 3.34 µM) | 0.19 (≈ 0.635 µM) | 0.25 (≈ 0.835 µM) | 0.5 (≈ 1.67 µM) | 0.19 (≈ 0.635 µM) | 0.25 (≈ 0.835 µM) | 0.19 (≈ 0.635 µM) | 0.19 (≈ 0.635 µM) | 0.19 (≈ 0.635 µM) | 0.19 (≈ 0.635 µM) | 12 (≈ 40.1 µM) | 0.19 (≈ 0.635 µM) | 12 (≈ 40.1 µM) | 0.19 (≈ 0.635 µM) | 0.25 (≈ 0.835 µM) | 0.19 (≈ 0.635 µM) | MIC (Klebsiella pneumoniae [4]): 0.25 µg/mL (≈ 0.835 µM); MIC (Klebsiella pneumoniae [5]): 1 µg/mL (≈ 3.34 µM); MIC (Klebsiella pneumoniae [8]): 0.5 µg/mL (≈ 1.67 µM); MIC (Klebsiella pneumoniae [10]): 0.19 µg/mL (≈ 0.635 µM); MIC (Klebsiella pneumoniae [21]): 0.19 µg/mL (≈ 0.635 µM); MIC (Klebsiella pneumoniae [24]): 1 µg/mL (≈ 3.34 µM)
